Data published in patent publication US12115248B2, “Devices and methods for delivering methane inhibiting compounds to animals” (Ruminant Biotech Corp Limited, priority 2022, dated 2024).
Values joined by “and” are separate entries in the source; they are usually repeats but may differ in a detail not shown here. Equal entries are not always repeated. “Also recorded” adds a separate entry of the source. Where two headings read alike, the source gives them in different places. Marks after values point to notes of the source that are not given here.

How the values were obtained:
methane emissions [1] = experiment: Animal study (Example 3): gas emissions in respiration chambers; format: in vivo, dairy beef heifers
Description: An animal study was conducted to determine methane emissions from an animal implanted with a bolus of the disclosure. The experiment was designed as an unbalanced, completely randomized design with three treatments and three repeated measurements over time in three periods 8 to 12 weeks apart.
Nineteen dairy beef heifers (312±14 kg live weight), including three spare animals, were selected from a mob of 50 based on behaviour traits and liveweight from a research farm in the Manawatu, New Zealand. They were assigned to one of three treatments: a bolus containing no bromoform (CONTROL; n=4); a bolus releasing bromoform at a rate of about 300-400 mg/day (LOW, n=6); or a bolus releasing about 450-580 mg/day (HIGH, n=6). SmaXtec boluses were administered at the same time to monitor rumen temperature as an animal health monitor and to complement the weekly blood samples.
The heifers were transported from research farm to a testing centre for diet adaptation and gas measurements using respiration chambers. The heifers were adapted to the environment of the cattle yards and the fresh cut pasture for 7 days before receiving their allocated treatment bolus. Gas measurements started 13 days after the boluses were administrated. Each heifer was in the respiration chambers for 48 hours during the period of gas measurements, which took two weeks for four measurement groups. At the end of the measurements in respiration chambers, the animals were transported back to research farm.
Fermentation gases methane (CH4), carbon dioxide (CO2) and hydrogen (H2) were quantified in four open-circuit respiration chambers at the New Zealand Ruminant Methane Measurement Centre (AgResearch, Palmerston North, New Zealand). Each chamber is 15.4 m^3 (3.5 m long×2 m wide×2.2 m high) with an air flow rate of around 1.0 m^3/min, which was continuously monitored by measuring differential pressure using a Venturi flowmeter. Temperature inside respiration chambers was approximately 20° C. and the relative humidity was on average approximately 79%. All gases were measured at ˜2.8-min intervals using a 4900C Continuous Emission analyser (Servomex Group Ltd, East Sussex, UK) and daily production of each gas was calculated from the difference between concentration flowing in- and out of the chamber (Pinares-Patiño et al., 2012). Respiration chambers were opened twice daily (˜20 min each time) for cleaning, feeding, faecal sampling and feed refusal collection. No measurements were performed during the period when chambers were opened, and missing data were interpolated by taking the average of the last 12 values ([…]) before the doors were opened.
Data from the first period of gas measurements was analysed using the ‘predictmeans’ and ‘Ime4’ packages in the statistical software R 4.0.3 (R Core Team, 2020). Data for dry matter intake and gas emissions for each heifer were averaged across the two measurement days. Heifer served as the experimental unit. The mixed model included treatment as fixed effect and respiration chamber nested in measurement group as random effect.

methane emissions [2] = experiment: Preliminary field trial (Example 14): gas emission measurements in respiration chambers; format: in vivo, heifers
Description: The following preliminary field trial is an example of the methane inhibiting capabilities of the bolus invention in a live animal trial using recognised methane analysis techniques. The bolus used in the trial is outlined in Table 14 and the trial time schedule is outlined in Table 16.
Five different total bromoform doses across two different diets were tested, giving a total of ten treatments (Table 15). […] Within each dose group, half of the animals were fed baleage (baled cut and covered pasture), and the other half were adapted to a diet of fresh cut ryegrass (New Zealand fresh pasture). Boluses were washed prior to administration to remove any bromoform that may have accumulated on the outside of the bolus. The additional boluses were administered on day 69 per os. (oesophagus). The second measurement session began 10 days after said bolus administration, with animals entering the respiration chambers for a 48-hour period in groups of four.
(§1) Liveweights of the animals were recorded prior to the first bolus administration and following each measurement period. Gas production of methane, hydrogen, and carbon dioxide was assessed every 3 min over a 48-hour period in respiration chambers using a 4900C Continuous Emission Analyser. […] Rumen fluid contents were sampled prior to bolus administration and following measurement periods in the respiration chambers. Rumen samples were assessed for pH and short-chain fatty acids (SCFAs) content, and were stored for bromoform residue analysis later on. Blood samples were collected 16 days prior to bolus administration, and on days 34 and 94 following the measurement periods. Blood samples were assessed biochemical constitution and for liver enzymes.
Emissions of methane (CH4), hydrogen (H2) and carbon dioxide (CO2) were assessed in respiration chambers over 48 hour measurements and converted to a per-day-total. […] The data are combined for both feeds during measurement session 2 (cf. schedule table 16). P-values were calculated by single-factor ANOVA and differences were deemed particularly significant for p-value <0.05.

[3] = Preliminary field trial (Example 14): dry matter intake, liveweight, blood samples; format: in vivo, heifers
Description: as §1
The data are combined for both feed types during measurement session 2. […]

[4] = rats; cited from earlier work
[5] = mice; cited from earlier work
[6] = after 48 hour with holding period; cited from earlier work
[7] = in vivo; cited from earlier work
[8] = 260 mg/d (HIGH + 156), period 2

BrC(Br)Br [bromoform]
H2 (methane emissions [1]; HIGH, 450 mg/d): 20.08^a g/d
CH4 production (g/day) decrease compared with CONTROL (methane emissions [1]; HIGH, about 450-580 mg/day): more than 99%
CH4 yield (g/kg dry matter intake) decrease compared with CONTROL (methane emissions [1]; HIGH, about 450-580 mg/day): more than 99%
H2 (methane emissions [1]; LOW, 300 mg/d): 20.60^a g/d
CH4 production (g/day) decrease compared with CONTROL (methane emissions [1]; LOW, about 300-400 mg/day): more than 99%
CH4 yield (g/kg dry matter intake) decrease compared with CONTROL (methane emissions [1]; LOW, about 300-400 mg/day): more than 99%
CO2 (methane emissions [2]; 156 mg/d (CON + 156), period 2): 5666 ± 327 g/day
H2 (methane emissions [2]; 156 mg/d (CON + 156), period 2): 7.9 ± 3.5 g/day
CH4 (methane emissions [2]; 156 mg/d (CON + 156), period 2, all animals, average ± standard error): 48.7 ± 29.5 g/day
methane emissions of individual animals (methane emissions [2]; 156 mg/day dose group (CON+156)): about 0.2 g/d and ~0 g/d and 76 g/d
methane emissions as % of the average of the untreated control group (methane emissions [2]; 156 mg/day, one animal with partial knockdown): approximately 50%
CH4 (methane emissions [2]; 182 mg/d (LOW + 156), period 2): 18.6 ± 18.2 g/day
CO2 (methane emissions [2]; 182 mg/d (LOW + 156), period 2): 5589 ± 295 g/day
H2 (methane emissions [2]; 182 mg/d (LOW + 156), period 2): 13.7 ± 4.7 g/day
methane inhibition, animals responding (methane emissions [2]; 182 mg/d (LOW+156)): full methane inhibition was observed for three of the four treated animals; also recorded: Partial inhibition was observed for 1 out of 4 animals
methane emission compared to control animals (methane emissions [2]; 182 mg/d, fourth animal): approximately 50%
CH4 (methane emissions [2]; 208 mg/d (MED + 156), period 2): -0.3 ± 0.5 g/day
CO2 (methane emissions [2]; 208 mg/d (MED + 156), period 2): 5011 ± 377 g/day
H2 (methane emissions [2]; 208 mg/d (MED + 156), period 2): 17.2 ± 3.5 g/day
methane inhibition (methane emissions [2]; 208 mg/d or more): full methane inhibition
CH4 (methane emissions [2]; [8]): -0.2 ± 0.3 g/day
CO2 (methane emissions [2]; [8]): 5159 ± 308 g/day
H2 (methane emissions [2]; [8]): 17 ± 3.4 g/day
CH4 (methane emissions [2]; Baleage, 156 mg/d): 59.1 g/day
CO2 (methane emissions [2]; Baleage, 156 mg/d): 5251 g/day
H2 (methane emissions [2]; Baleage, 156 mg/d): 7.4 g/day
CH4 (methane emissions [2]; Baleage, 182 mg/d): 0.9 g/day
CO2 (methane emissions [2]; Baleage, 182 mg/d): 5202 g/day
H2 (methane emissions [2]; Baleage, 182 mg/d): 13.3 g/day
CH4 (methane emissions [2]; Baleage, 208 mg/d): -1.0 g/day
CO2 (methane emissions [2]; Baleage, 208 mg/d): 4919 g/day
H2 (methane emissions [2]; Baleage, 208 mg/d): 19.9 g/day
CH4 (methane emissions [2]; Baleage, 260 mg/d): 0.3 g/day
CO2 (methane emissions [2]; Baleage, 260 mg/d): 4645 g/day
H2 (methane emissions [2]; Baleage, 260 mg/d): 12.7 g/day
CH4 (methane emissions [2]; Pasture, 156 mg/d): 38.2 g/day
CO2 (methane emissions [2]; Pasture, 156 mg/d): 6081 g/day
H2 (methane emissions [2]; Pasture, 156 mg/d): 8.4 g/day
CH4 (methane emissions [2]; Pasture, 182 mg/d): 36.2 g/day
CO2 (methane emissions [2]; Pasture, 182 mg/d): 5977 g/day
H2 (methane emissions [2]; Pasture, 182 mg/d): 14.1 g/day
CH4 (methane emissions [2]; Pasture, 208 mg/d): 0.3 g/day
CO2 (methane emissions [2]; Pasture, 208 mg/d): 5104 g/day
H2 (methane emissions [2]; Pasture, 208 mg/d): 14.4 g/day
CH4 (methane emissions [2]; Pasture, 260 mg/d): -0.7 g/day
CO2 (methane emissions [2]; Pasture, 260 mg/d): 5673 g/day
H2 (methane emissions [2]; Pasture, 260 mg/d): 21.3 g/day
effective minimal daily dose (methane emissions [2]; cattle, about 378 kg): 0.28 to 0.4 mg/kg/day
minimum dose for an effective mitigation of methanogenesis (methane emissions [2]; cattle, about 378 kg): 104 to 156 mg/day
methane inhibition (methane emissions [2]; dose range of 0-104 mg/day, chamber session 1 (data not shown)): no substantial methane inhibition
methane inhibition, animals responding (methane emissions [2]; doses equal to and greater than 156 mg/d): 15 out of 16 animals
Average animal liveweight ([3]; 156 mg/d (CON + 156)): 380 kg
Average animal liveweight ([3]; 182 mg/d (LOW+156)): 387 kg
Average animal liveweight ([3]; 208 mg/d (MED + 156)): 376 kg
Average animal liveweight ([3]; 260 mg/d (HIGH + 156)): 369 kg
Dry matter intake ([3]; all tested doses): not significantly different; also recorded: not significantly altered
Animal liveweight, treated versus untreated control ([3]; in vivo): about the same
blood data, treated versus untreated control ([3]; in vivo): No differences
Average dry matter intake ([3]; treatment group CON + 156): 5.54 kg/day
Average dry matter intake ([3]; treatment group HIGH): 5.54 kg/day
Average dry matter intake ([3]; treatment group HIGH + 260): 4.47 kg/day
Average dry matter intake ([3]; treatment group LOW + 182): 5.15 kg/day
Average dry matter intake ([3]; treatment group LOW, both feeds, session 2): 5.11 kg/day
Average dry matter intake ([3]; treatment group MED): 5.72 kg/day
Average dry matter intake ([3]; treatment group MED + 208): 3.86 kg/day
half-life in animals [4]: 0.8 h
half-life in animals [5]: 1.2 h
residues in meat and tissue from slaughtered steers [6]: no residues
level in milk [7]: no significant increase
